Among the data in PubChem BioAssay AID1963837 (Molecular Pharmacology Branch, DTP, NCI, 2024) are viability, T/C values, retold here.
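Also: spheroids exposed to drugs for seven days before readout.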

The first assay deals with 843126-344-R-J1-PDC complex spheroid viability. Description: Anticancer human tumor 843126-344-R-J1-PDC patient-derived melanoma cell line growth inhibition [POLQ]. As to conditions: second compound 0.0316 µM; first compound 3.16 µM; stronger effect = lower value. An outline of the steps: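 Three-cell-type spheroids modelling solid tumor plus stroma served as the readout system; POL inhibitors were tested individually and in combination, concentration ranges set by clinical Cmax where known.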
The viability, T/C is the ratio of treated to control. `CCc1cc2c(N3CCc4c(cc(Cn5ccnc5)cc4-c4cn(C)nc4C(F)(F)F)C3=O)cc(C)nc2c(OC)n1` + Nc1ccc(C#CCN(C(=O)Cc2ncc(C(F)(F)F)cc2C(F)(F)F)c2ccc(F)cc2)nn1: the viability, T/C is 73.2%.

On to `COc1cc2cc(C(=O)CCC(=O)O)sc2cc1OC` + Nc1ccc(C#CCN(C(=O)Cc2ncc(C(F)(F)F)cc2C(F)(F)F)c2ccc(F)cc2)nn1, for which the viability, T/C was 90.2%.

Consider `O=C(Nc1ccc(O)c(NS(=O)(=O)c2ccc(F)cc2)c1)c1ccc(-c2ccccc2)cc1` + Nc1ccc(C#CCN(C(=O)Cc2ncc(C(F)(F)F)cc2C(F)(F)F)c2ccc(F)cc2)nn1, for which the viability, T/C was 82.2%.

Still in this assay, the particulars now being: second compound 0.0316 µM; first compound 10 µM; stronger effect = lower value.
Regarding `C#Cc1c(F)ccc2cc(O)cc(-c3ncc4c(N5CC6CCC(C5)N6)nc(OCC56CCCN5CC(F)C6)nc4c3F)c12` (stereo unspecified) + Nc1ccc(C#CCN(C(=O)Cc2ncc(C(F)(F)F)cc2C(F)(F)F)c2ccc(F)cc2)nn1, the viability, T/C is 76.5%.

As for `CC1COCCN1c1cc(C2(O)CC3CCC(C2)O3)c2cnn(-c3ccn[nH]3)c2n1` (stereo unspecified) + Nc1ccc(C#CCN(C(=O)Cc2ncc(C(F)(F)F)cc2C(F)(F)F)c2ccc(F)cc2)nn1, the viability, T/C is 20.2%.

Consider `CCc1cc2c(N3CCc4c(cc(Cn5ccnc5)cc4-c4cn(C)nc4C(F)(F)F)C3=O)cc(C)nc2c(OC)n1` + Nc1ccc(C#CCN(C(=O)Cc2ncc(C(F)(F)F)cc2C(F)(F)F)c2ccc(F)cc2)nn1, for which the viability, T/C is 58.8%.

With `COc1cc2cc(C(=O)CCC(=O)O)sc2cc1OC` + Nc1ccc(C#CCN(C(=O)Cc2ncc(C(F)(F)F)cc2C(F)(F)F)c2ccc(F)cc2)nn1, the viability, T/C is 89.2%.

As for `O=C(Nc1ccc(O)c(NS(=O)(=O)c2ccc(F)cc2)c1)c1ccc(-c2ccccc2)cc1` + Nc1ccc(C#CCN(C(=O)Cc2ncc(C(F)(F)F)cc2C(F)(F)F)c2ccc(F)cc2)nn1, the viability, T/C was 73.6%.

Still in this assay, the particulars now being: second compound 0.1 µM; first compound 0.0316 µM; stronger effect = lower value.
Turning to `C#Cc1c(F)ccc2cc(O)cc(-c3ncc4c(N5CC6CCC(C5)N6)nc(OCC56CCCN5CC(F)C6)nc4c3F)c12` (stereo unspecified) + Nc1ccc(C#CCN(C(=O)Cc2ncc(C(F)(F)F)cc2C(F)(F)F)c2ccc(F)cc2)nn1, the viability, T/C is 106%.

For `CC1COCCN1c1cc(C2(O)CC3CCC(C2)O3)c2cnn(-c3ccn[nH]3)c2n1` (stereo unspecified) + Nc1ccc(C#CCN(C(=O)Cc2ncc(C(F)(F)F)cc2C(F)(F)F)c2ccc(F)cc2)nn1, the viability, T/C was 74.5%.

Consider `CCc1cc2c(N3CCc4c(cc(Cn5ccnc5)cc4-c4cn(C)nc4C(F)(F)F)C3=O)cc(C)nc2c(OC)n1` + Nc1ccc(C#CCN(C(=O)Cc2ncc(C(F)(F)F)cc2C(F)(F)F)c2ccc(F)cc2)nn1, for which the viability, T/C is 97.5%.

`COc1cc2cc(C(=O)CCC(=O)O)sc2cc1OC` + Nc1ccc(C#CCN(C(=O)Cc2ncc(C(F)(F)F)cc2C(F)(F)F)c2ccc(F)cc2)nn1: the viability, T/C is 77.8%.

Regarding `O=C(Nc1ccc(O)c(NS(=O)(=O)c2ccc(F)cc2)c1)c1ccc(-c2ccccc2)cc1` + Nc1ccc(C#CCN(C(=O)Cc2ncc(C(F)(F)F)cc2C(F)(F)F)c2ccc(F)cc2)nn1, the viability, T/C is 91.6%.

Staying with this assay, now noted: second compound 0.1 µM; first compound 0.1 µM; stronger effect = lower value.
In the case of `C#Cc1c(F)ccc2cc(O)cc(-c3ncc4c(N5CC6CCC(C5)N6)nc(OCC56CCCN5CC(F)C6)nc4c3F)c12` (stereo unspecified) + Nc1ccc(C#CCN(C(=O)Cc2ncc(C(F)(F)F)cc2C(F)(F)F)c2ccc(F)cc2)nn1, the viability, T/C was 110%.

`CC1COCCN1c1cc(C2(O)CC3CCC(C2)O3)c2cnn(-c3ccn[nH]3)c2n1` (stereo unspecified) + Nc1ccc(C#CCN(C(=O)Cc2ncc(C(F)(F)F)cc2C(F)(F)F)c2ccc(F)cc2)nn1: the viability, T/C was 79.2%.

In the case of `CCc1cc2c(N3CCc4c(cc(Cn5ccnc5)cc4-c4cn(C)nc4C(F)(F)F)C3=O)cc(C)nc2c(OC)n1` + Nc1ccc(C#CCN(C(=O)Cc2ncc(C(F)(F)F)cc2C(F)(F)F)c2ccc(F)cc2)nn1, the viability, T/C is 99.5%.

As for `COc1cc2cc(C(=O)CCC(=O)O)sc2cc1OC` + Nc1ccc(C#CCN(C(=O)Cc2ncc(C(F)(F)F)cc2C(F)(F)F)c2ccc(F)cc2)nn1, the viability, T/C is 103%.

Turning to `O=C(Nc1ccc(O)c(NS(=O)(=O)c2ccc(F)cc2)c1)c1ccc(-c2ccccc2)cc1` + Nc1ccc(C#CCN(C(=O)Cc2ncc(C(F)(F)F)cc2C(F)(F)F)c2ccc(F)cc2)nn1, the viability, T/C is 102%.

Staying with this assay, now noted: second compound 0.1 µM; first compound 0.316 µM; stronger effect = lower value.
As to `C#Cc1c(F)ccc2cc(O)cc(-c3ncc4c(N5CC6CCC(C5)N6)nc(OCC56CCCN5CC(F)C6)nc4c3F)c12` (stereo unspecified) + Nc1ccc(C#CCN(C(=O)Cc2ncc(C(F)(F)F)cc2C(F)(F)F)c2ccc(F)cc2)nn1, the viability, T/C is 96.7%.

Regarding `CC1COCCN1c1cc(C2(O)CC3CCC(C2)O3)c2cnn(-c3ccn[nH]3)c2n1` (stereo unspecified) + Nc1ccc(C#CCN(C(=O)Cc2ncc(C(F)(F)F)cc2C(F)(F)F)c2ccc(F)cc2)nn1, the viability, T/C was 51.6%.

As for `CCc1cc2c(N3CCc4c(cc(Cn5ccnc5)cc4-c4cn(C)nc4C(F)(F)F)C3=O)cc(C)nc2c(OC)n1` + Nc1ccc(C#CCN(C(=O)Cc2ncc(C(F)(F)F)cc2C(F)(F)F)c2ccc(F)cc2)nn1, the viability, T/C was 89.1%.

Take `COc1cc2cc(C(=O)CCC(=O)O)sc2cc1OC` + Nc1ccc(C#CCN(C(=O)Cc2ncc(C(F)(F)F)cc2C(F)(F)F)c2ccc(F)cc2)nn1: the viability, T/C was 92%.

As for `O=C(Nc1ccc(O)c(NS(=O)(=O)c2ccc(F)cc2)c1)c1ccc(-c2ccccc2)cc1` + Nc1ccc(C#CCN(C(=O)Cc2ncc(C(F)(F)F)cc2C(F)(F)F)c2ccc(F)cc2)nn1, the viability, T/C was 82.2%.

Still in this assay, the particulars now being: second compound 0.1 µM; first compound 1 µM; stronger effect = lower value.
On to `C#Cc1c(F)ccc2cc(O)cc(-c3ncc4c(N5CC6CCC(C5)N6)nc(OCC56CCCN5CC(F)C6)nc4c3F)c12` (stereo unspecified) + Nc1ccc(C#CCN(C(=O)Cc2ncc(C(F)(F)F)cc2C(F)(F)F)c2ccc(F)cc2)nn1, for which the viability, T/C was 108%.

For `CC1COCCN1c1cc(C2(O)CC3CCC(C2)O3)c2cnn(-c3ccn[nH]3)c2n1` (stereo unspecified) + Nc1ccc(C#CCN(C(=O)Cc2ncc(C(F)(F)F)cc2C(F)(F)F)c2ccc(F)cc2)nn1, the viability, T/C was 37.6%.

On to `CCc1cc2c(N3CCc4c(cc(Cn5ccnc5)cc4-c4cn(C)nc4C(F)(F)F)C3=O)cc(C)nc2c(OC)n1` + Nc1ccc(C#CCN(C(=O)Cc2ncc(C(F)(F)F)cc2C(F)(F)F)c2ccc(F)cc2)nn1, for which the viability, T/C is 82%.
